What was measured:
salt depleted dogs = assay: Blood pressure in salt depleted dogs after oral or intravenous administration; type: in vivo
[1] = dog, in vivo, po
Method: The following compositions comprising compound I were prepared and the bioavailability of each composition was determined in fasted dogs.
Dogs (beagle dogs, mixed sexes, weighing about 10 kg) were fasted for at least 12 hours before dosing. Food was returned after the last blood sample was collected (24 hours). Water was available at all times.
A dose equivalent to 50 or 100 milligrams of compound I was administered by mouth to each dog, followed with either 20 or 50 ml of water through a feeding tube.
Blood samples were collected at the following times: 0, 0.5, 1, 2, 3, 4, 6, 8, 12 and 24 hours. Blood samples of 3 ml volume were anti-coagulated with EDTA. The plasma was separated by centrifugation and frozen until analyzed. Blood plasma concentrations of compound I were determined by HPLC.
Bioavailability was calculated as follows: % Bioavailability=[(AUC)oral×D/(AUC) intravenous]×100. (AUC)oral and (AUC) intravenous are the areas under the curve for the plasma concentration-time profiles following oral and intravenous administration, respectively. D is defined as the intravenous vs. oral DOSE ratio. In particular, D=(DOSE)iv/DOSE)oral. The intravenous dose was 3.0 mg/kg and oral dose was about 5.0 mg/kg or about 10.0 mg/kg. The (AUC) intravenous value used corresponds to the mean value from a separate group of 6 dogs.

CC(C)C[C@H](O)[C@H](O)[C@H](CC1CCCCC1)NC(=O)[C@H](Cc1cscn1)NC(=O)[C@H](Cc1ccccc1)CS(=O)(=O)N1CCN(C)CC1 [compound I, (2S)-2-Benzyl-3-(1-methyl-piperazin-4-ylsulfonyl)propionyl-(L)-(4-Thiazolyl)Ala Amide of (2S, 3R, 4S)-2-Amino-1-cyclohexyl-3,4-dihydroxy-6-methylheptane]
effect on blood pressure (salt depleted dogs): reduces blood pressure
times more bioavailable orally as a tablet with organic polycarboxylic acid compared to tablet or powder filled capsule without the acid [1]: ≤ 7.8 times
